What all share (test): radioligand binding, gel filtration separation of bound and free ATP, saturation fit
Background: Size exclusion chromatography separates by hydrodynamic size, large species first.

Experiment [1] concerns the target T1, P2K2 extracellular lectin domain (LecRK-I.5), GST-tagged (Arabidopsis thaliana, UniProt Q9M1G4).
T1 construct: gene LECRK15; extracellular lectin domain (ectodomain), GST fusion, purified from E. coli BL21-AI
T1 sequence (Q9M1G4 23-286 limits assumed): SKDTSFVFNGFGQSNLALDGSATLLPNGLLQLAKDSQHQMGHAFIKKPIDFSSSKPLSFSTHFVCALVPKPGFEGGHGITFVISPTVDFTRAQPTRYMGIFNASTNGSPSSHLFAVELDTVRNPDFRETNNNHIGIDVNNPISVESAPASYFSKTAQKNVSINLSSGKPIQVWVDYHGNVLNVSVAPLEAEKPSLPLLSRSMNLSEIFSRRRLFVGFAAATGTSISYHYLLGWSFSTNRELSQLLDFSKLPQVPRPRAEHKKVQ

The target of experiment [2] is T2, P2K2 extracellular lectin domain (LecRK-I.5), GST-tagged (Arabidopsis thaliana, UniProt Q9M1G4, H99A).
T2 construct: gene LECRK15; extracellular lectin domain (ectodomain), GST fusion, purified from E. coli BL21-AI
T2 sequence (Q9M1G4 23-286 H99A limits assumed): T1 sequence (Q9M1G4 23-286 limits assumed) with H77A

Experiment [3] has as its target T3, P2K2 extracellular lectin domain (LecRK-I.5), GST-tagged (Arabidopsis thaliana, UniProt Q9M1G4, S246A).
T3 construct: gene LECRK15; extracellular lectin domain (ectodomain), GST fusion, purified from E. coli BL21-AI
T3 sequence (Q9M1G4 23-286 S246A limits assumed): T1 sequence (Q9M1G4 23-286 limits assumed) with S224A

Experiment [4] addresses T4, P2K2 extracellular lectin domain (LecRK-I.5), GST-tagged (Arabidopsis thaliana, UniProt Q9M1G4, T245A).
T4 construct: gene LECRK15; extracellular lectin domain (ectodomain), GST fusion, purified from E. coli BL21-AI
T4 sequence (Q9M1G4 23-286 T245A limits assumed): T1 sequence (Q9M1G4 23-286 limits assumed) with T223A

Experiment [5] addresses T5, P2K2 extracellular lectin domain (LecRK-I.5), GST-tagged (Arabidopsis thaliana, UniProt Q9M1G4, R144A).
T5 construct: gene LECRK15; extracellular lectin domain (ectodomain), GST fusion, purified from E. coli BL21-AI
T5 sequence (Q9M1G4 23-286 R144A limits assumed): T1 sequence (Q9M1G4 23-286 limits assumed) with R122A

Changes are numbered by the printed parent chain. Some results are limits rather than exact numbers.

Consider `Nc1ncnc2c1ncn2[C@@H]1O[C@H](COP(=O)(O)OP(=O)(O)OP(=O)(O)O)[C@@H](O)[C@H]1O` [ATP], for which the Kd (as a rule, a measure of binding affinity in units of concentration) in experiment [1] was 41.6 ± 13.8 nM; in experiment [2], over 1000 nM; in experiment [3] it was 109 ± 29.7 nM; in experiment [4], 41.7 ± 14.1 nM; in experiment [5], 104 ± 25 nM.

Source of the values: paper PMC9897758, “Computational prediction and in vitro analysis of the potential ligand binding site within the extracellular ATP receptor, P2K2” (Plant Signaling & Behavior, 2023).
